{"source": "patent US8633025B2", "about": "“Generation of neuronal cells from embryonic stem cells” (Universite Libre de Bruxelles, priority 2007, dated 2014)", "key": {"ES cell-derived neurons [1]": {"tested_on": "ES cell-derived neurons", "experiment": "Whole-cell patch clamp recording of spontaneous post-synaptic currents", "type": "cell-based, mouse", "settings": "for Inhibition of recorded ePSCs: NBQX 5 μM and APV 50 μM", "procedure": "Electrophysiological recordings were performed at room temperature (20-25° C.) in an external solution (ACSF) containing 120 mM NaCl, 26 mM NaHCO3, 11 mM D-glucose, 2 mM KCl, 2 mM CaCl2, 1.2 mM MgSO4 and 1.2 mM KH2PO4 with an osmolarity of 290 mOsm. The recording chamber was constantly superfused at a flow rate of 1 ml/min. […] Both pipette solutions were adjusted to pH 7.3 and 300-330 mOsm/l. Whole-cell patch clamp recordings were carried out with an EPC10 amplifier (HEKA, Elektronik, Lambrecht/Pfalz, Germany) in voltage clamp mode. Signals were filtered at 4 kHz using the built-in filter of EPC10 and digitally sampled at 20 kHz except spontaneous postsynaptic currents signals that were filtered at 2.5 kHz and digitally sampled at 5 kHz. Voltage protocol generation, data acquisition and analysis were made with Pulse 8.65 (HEKA, Elektronik, Lambrecht/Pfalz, Germany). The presence of spontaneous excitatory postsynaptic currents (sEPSCs) was assessed by clamping neurons to −60 mV in the presence of 100 μM picrotoxin. The presence of spontaneous inhibitory postsynaptic currents (sIPSCs) was assessed by clamping neurons to […] in the presence of 1 μM TTX, 5 μM 2,3-dioxo-6-nitro-1,2,3,4-tetrahydrobenzo[f]quinoxaline-7-sulfonamide disodium salt (NBQX) and 50 μM D-(−)-2-amino-5-phosphonopentanoic acid (APV). To further check the nature of spontaneous postsynaptic currents, NBQX (5 μM) and APV (50 μM) were used to block AMPA and NMDA receptors respectively and picrotoxin (100 μM) was used to block GABAA receptors. Fifteen neurons were recorded for each type of PSC and for each condition (DDM or DDM+cyclo)."}, "[2]": {"tested_on": "ES cell-derived neural progenitors", "settings": "short BrdU pulse", "procedure": "(§1) Experimental procedures were as described in Example 1. […] Ethanol was used as control.\nFor long term pulse chase experiments, BrdU (Becton Dickinson) was added to the differentiation medium on the different days during 24 h at a final concentration of 10 μM. Cells were dissociated after 21 days of differentiation and plated on coated coverslips for an additional day. For short-term BrdU uptake experiments, BrdU was added to the differentiation medium during 1 hour prior to cell dissociation and replating.\nFor BrdU detection, medium was removed and cells were rinsed with PBS then fixed for 30 min in 4% paraformaldehyde (PFA) in PBS, pH 7.4 at 4° C. PFA was removed and cells were rinsed three times with PBS. BrdU was unmasked using an antigen retrieval method: cells were boiled during 4×5 minutes in 10 mM citrate buffer (pH 6.0) and cooled down to room temperature during 20 minutes. Immunostaining was performed as described above using mouse anti-BrdU (1/50, Becton Dickinson) or rat anti-BrdU (1/250, Abcam) antibodies. Multiple labelling was performed sequentially as described above."}, "ES cells": {"tested_on": "ES cells", "experiment": "Regional identity markers among Nestin-positive neural progenitors from ES cells differentiated in DDM+cyclo (immunofluorescence)", "type": "cell-based, mouse", "procedure": "Similar results were obtained with several ES cell lines, including distinct derivatives of E14 and J1 cells. ES cells were trypsinised, dissociated and plated at a density of 5×10^3 cells/cm^2 on gelatin-coated cell culture plastic dishes in ES medium. When needed, the cells were plated for 15-30 minutes on gelatin coated-dishes, to let the MEFS adhere and the supernatant containing ES cells only was recovered and subsequently replated on gelatin coated dishes. After adhesion, medium was changed to “Default Differentiation Medium” (DDM). DDM consists of DMEM/F12 (Invitrogen-Gibco) supplemented with 1×N2 supplement (100×N2 supplement consists of 8.61 μM insulin, 1 mM transferrin, 2 μM progesterone, 10.01 mM putrescine and 3.01 μM selenite; Invitrogen-Gibco), 2 mM glutamine (Invitrogen-Gibco), 1×MEM-nonessential amino acids (Invitrogen-Gibco), 1 mM sodium pyruvate (Invitrogen-Gibco), 110 μM beta-mercaptoethanol (Sigma) and 0.5 mg/ml Bovine Serum Albumine, Fraction V (Invitrogen-Gibco). Medium was changed every two days.\n(§2) Medium was removed and cells were rinsed with PBS then fixed for 30 min in 4% paraformaldehyde (PFA) in PBS, pH 7.4 at 4° C. PFA was removed and cells were rinsed three times with PBS. Blocking of unspecific antibody activity and permeabilization was done in PBS supplemented with 5% horse serum (Invitrogen-Gibco), 3% bovine serum albumin (Sigma) and 0.3% Triton X-100 (Sigma). Incubation with primary antibodies was done in PBS supplemented with 1% horse serum, 3% bovine serum albumin and 0.1% Triton X-100 overnight at 4° C. Cells were rinsed three times with PBS and incubated with secondary antibodies in PBS supplemented with 1% horse serum, 3% bovine serum albumin and 0.1% Triton X-100 for one hour at room temperature then rinsed again three times with PBS. For double or multiple immunostaining, the process was repeated. Nuclei were stained with bisbenzimide (Hoechst#33258; Sigma) and coverslips were mounted with glycergel (DAKO). For some antibodies, antigen retrieval was used before blocking: cells were boiled during 4×5 minutes in 10 mM citrate buffer (pH 6.0) and cooled down to room temperature during 20 minutes.\n(§3) For quantification of the proportion of cells expressing a specific marker (differentiation markers, region-specific markers, neurotransmitter transporter proteins or layer-specific markers), at least 300 cells from 3 independent experiments (at least 100 cells from each experiment) were counted for each time-point studied.\nas §1"}, "ES cell-derived neurons [3]": {"tested_on": "ES cell-derived neurons", "experiment": "Morphology and Pyramidal Morphology Index (PMI) of MAP2-positive neurons", "type": "cell-based, mouse", "description": "Pictures of at least 100 neurons stained for MAP2 were to taken randomly for each condition and from two different experiments and the quantification was done blindly in Adobe Photoshop Software using a 25 μm circle drawn on a superposed layer."}, "ES cell-derived neurons [4]": {"tested_on": "ES cell-derived neurons", "experiment": "Layer-specific cortical markers among Tuj1+ neurons (immunofluorescence)", "type": "cell-based, mouse", "settings": "of all Tuj1+ neurons, days 16-21", "procedure": "as §2, with “Nuclei were stained with bisbenzimide (Hoechst#33258; Sigma) and coverslips were mounted with glycergel (DAKO).” left out\nas §3\nWe studied the expression of the following layer-specific markers corresponding to the major subtypes of cortical neurons generated in vivo in the mouse, including: Tbr1 and reelin for preplate neurons and Cajal-Retzius cells; Tle4, Tbr1, CTIP2, Otx1, Er81, FoxP2 for deep ([…]) layer neurons; Satb2 and Cux1 for upper (II/III/IV) layer neurons and callosal projection neurons of layer V (see FIG. 5)."}, "ES cell-derived neurons [5]": {"tested_on": "ES cell-derived neurons", "experiment": "Neurotransmission markers among Tuj1-positive neurons derived from ES cells (immunofluorescence)", "type": "cell-based, mouse", "settings": "of Tuj1-positive cells after 28 days of differentiation", "procedure": "Similar results were obtained with several ES cell lines, including distinct derivatives of E14 and J1 cells. ES cells were trypsinised, dissociated and plated at a density of 5×10^3 cells/cm^2 on gelatin-coated cell culture plastic dishes in ES medium. When needed, the cells were plated for 15-30 minutes on gelatin coated-dishes, to let the MEFS adhere and the supernatant containing ES cells only was recovered and subsequently replated on gelatin coated dishes. After adhesion, medium was changed to “Default Differentiation Medium” (DDM). DDM consists of DMEM/F12 (Invitrogen-Gibco) supplemented with 1×N2 supplement (100×N2 supplement consists of 8.61 μM insulin, 1 mM transferrin, 2 μM progesterone, 10.01 mM putrescine and 3.01 μM selenite; Invitrogen-Gibco), 2 mM glutamine (Invitrogen-Gibco), 1×MEM-nonessential amino acids (Invitrogen-Gibco), 1 mM sodium pyruvate (Invitrogen-Gibco), 110 μM beta-mercaptoethanol (Sigma) and 0.5 mg/ml Bovine Serum Albumine, Fraction V (Invitrogen-Gibco). Medium was changed every two days. […]\nas §3, with “studied. […]” for “studied.”"}, "ES cell-derived neurons [6]": {"tested_on": "ES cell-derived neurons", "experiment": "Slice overlay assay on postnatal cortical slices, radial orientation", "type": "cell-based", "settings": "21 days of differentiation, four days after plating on mouse postnatal cortical slices"}, "[7]": {"tested_on": "ES cell-derived neural progenitors", "experiment": "Regional markers among Nestin-positive progenitors after DDM+Shh or DDM+Dkk", "type": "cell-based, mouse", "settings": "14 days", "procedure": "FIG. 12 illustrates that neural progenitors and neurons of ventral telencephalic identity (including cortical interneurons, striatal interneurons, striatal projections neurons) can be generated from ES cells following DDM+Shh (at 1-10 μM) or DDM+DDK Wnt inhibitor (at 100-300 ng/ml), or a combination of both (at 1 μM/100 ng/ml respectively). (A) Proportion of Nestin positive neural progenitors expressing specific neural regionalization markers following 14 days of differentiation in DDM or DDM+Shh or DDM+DKK. (B), (C) Proportion of VgluT1, VgluT2 and vGAT, and reelin, Tbr1, Isl1 among Tuj1 positive neurons after 21 days of differentiation in DDM alone or DDM+Shh or DDM+DKK, or DDM+Shh/DKK.\nTo increase the proportion of ventral character of the ES cell-derived neural progenitors, we chose to increase Shh signalling, by adding soluble recombinant Shh to DDM, or to antagonize dorsalizing Wnt-signalling, by adding Dickkopf-1 (Dkk), a soluble antagonist of the Wnt pathway."}, "[8]": {"settings": "neurons after 28 days following differentiation in DDM"}, "[9]": {"settings": "cyclopamine 1 μM day 2 to day 10, 14 days, of Nestin-positive cells"}}, "data": [{"molecule": "2,3-dioxo-6-nitro-1,2,3,4-tetrahydrobenzo[f]quinoxaline-7-sulfonamide disodium salt [NBQX]", "values": [{"measurement": "Inhibition of recorded ePSCs", "setting": "ES cell-derived neurons [1]; [8]", "result": "selective inhibition"}]}, {"molecule": "CC1=C2C[C@H]3[C@@H](CC=C4C[C@@H](O)CC[C@@]43C)[C@@H]2CC[C@]12O[C@@H]1C[C@H](C)CN[C@H]1[C@H]2C", "note": "[cyclopamine]", "values": [{"measurement": "GABAergic inhibitory post-synaptic currents (iPSCs) recorded", "setting": "ES cell-derived neurons [1]", "result": "no or little iPSCs could be recorded"}, {"measurement": "Neurons displaying glutamatergic excitatory post-synaptic currents (ePSCs)", "setting": "ES cell-derived neurons [1]", "result": "38.89+/−11.49%"}, {"measurement": "BrdU labelled neural progenitors, day 10", "setting": "[2]; day 10", "result": "42.11+/−3.42%"}, {"measurement": "BrdU labelled neural progenitors, day 14", "setting": "[2]; day 14", "result": "28.57+/−2.00%"}, {"measurement": "Otx1-2 positive neural progenitors", "setting": "ES cells; cyclopamine 1 μM day 2 to day 10, 14 days of differentiation, of Nestin-positive cells", "result": "75.57+/−1.21%"}, {"measurement": "Gsh2 expression among neural progenitors", "setting": "ES cells; [9]", "result": "1.37+/−0.61%"}, {"measurement": "Nkx2.1 expression among neural progenitors", "setting": "ES cells; [9]", "result": "1.87+/−1.10%"}, {"measurement": "Nkx2.2 expression among neural progenitors", "setting": "ES cells; [9]", "result": "4.05+/−1.10%"}, {"measurement": "Otx1 expression among neural progenitors", "setting": "ES cells; [9]", "result": "71.21+/−2.52%"}, {"measurement": "Pax6 expression among neural progenitors", "setting": "ES cells; [9]", "result": "73.03+/−2.44%"}, {"measurement": "Effect on the neuralization process (pattern of pan-neural markers)", "setting": "ES cells; different time points, compared with DDM without cyclopamine", "result": "did not change significantly"}, {"measurement": "Neurons with PMI superior to the cut-off value", "setting": "ES cell-derived neurons [3]; cut-off 1.2 μm, of MAP2-positive neurons after 28 days of differentiation", "result": "77.23+/−4.17%"}, {"measurement": "PMI compared with DDM conditions", "setting": "ES cell-derived neurons [3]; p<0.001, Mann-Whitney test", "result": "significantly higher PMI"}, {"measurement": "Neurons showing a unipolar morphology", "setting": "ES cell-derived neurons [3]; semi-quantitative scoring, MAP2-positive neurons, 28 days", "result": "61.39+/−4.84%"}, {"measurement": "CTIP2 expressing neurons", "setting": "ES cell-derived neurons [4]", "result": "36.01+/−1.52%"}, {"measurement": "Cux1 expressing neurons", "setting": "ES cell-derived neurons [4]", "result": "10.56+/−0.80%"}, {"measurement": "Otx1 expressing neurons", "setting": "ES cell-derived neurons [4]", "result": "15.42+/−1.06%"}, {"measurement": "Satb2 expressing neurons", "setting": "ES cell-derived neurons [4]", "result": "7.60+/−0.78%"}, {"measurement": "Tbr1 expressing neurons", "setting": "ES cell-derived neurons [4]", "result": "38.14+/−1.54%"}, {"measurement": "reelin expressing neurons", "setting": "ES cell-derived neurons [4]", "result": "21.18+/−1.28%"}, {"measurement": "VGluT1 expressing neurons", "setting": "ES cell-derived neurons [5]", "result": "70.04+/−2.98%"}, {"measurement": "VGluT2 expressing neurons", "setting": "ES cell-derived neurons [5]", "result": "15.46+/−2.52%"}, {"measurement": "Neurons displaying a radial orientation", "setting": "ES cell-derived neurons [6]", "result": "64.98+/−2.40%"}]}, {"molecule": "picrotoxin", "values": [{"measurement": "Inhibition of recorded iPSCs", "setting": "ES cell-derived neurons [1]; neurons after 28 days following differentiation in DDM, picrotoxin 100 μM", "result": "selective inhibition"}]}, {"molecule": "N[C@H](CCCP(=O)(O)O)C(=O)O", "note": "[APV, D-(−)-2-amino-5-phosphonopentanoic acid]", "values": [{"measurement": "Inhibition of recorded ePSCs", "setting": "ES cell-derived neurons [1]; [8]", "result": "selective inhibition"}]}, {"molecule": "Dkk: Dickkopf-1 (Dkk), a soluble antagonist of the Wnt pathway (protein, UniProt O94907 32-266, looked up) Dickkopf-related protein 1: TLNSVLNSNAIKNLPPPLGGAAGHPGSAVSAAPGILYPGGNKYQTIDNYQPYPCAEDEECGTDEYCASPTRGGDAGVQICLACRKRRKRCMRHAMCCPGNYCKNGICVSSDQNHFRGEIEETITESFGNDHSTLDGYSRRTTLSSKMYHTKGQEGSVCLRSSDCASGLCCARHFWSKICKPVLKEGQVCTKHRRKGSHGLEIFQRCYCGEGLSCRIQKDHHQASNSSRLHTCQRH", "values": [{"measurement": "Proportion of Nkx2.1 positive progenitors", "setting": "[7]; 300 ng/ml Dkk, of all Nestin-positive cells", "result": "29.0±2.0", "unit": "%"}, {"measurement": "Expression of Pax6 among progenitors", "setting": "[7]; Dkk 300 ng/ml, of Nestin-positive cells", "result": "23.7±1.4", "unit": "%"}]}]}
